Experimental data: ChEMBL document CHEMBL4715723, “Discovery and development of benzo-[1,2,4]-triazolo-[1,4]-oxazepine GPR142 agonists for the treatment of diabetes” (Bioorg Med Chem Lett, 2016)

Assays:
[1] = biological target: T1, Probable G-protein coupled receptor 142 (Homo sapiens, UniProt Q7Z601); experiment: Agonist activity at human GPR142 expressed in CHO cells measured for 3 mins by Fluo-4M dye based FLIPR assay; assay type: cell-based; conditions: read-out: IC50 (the source's name)
T1 sequence (Q7Z601 whole entry): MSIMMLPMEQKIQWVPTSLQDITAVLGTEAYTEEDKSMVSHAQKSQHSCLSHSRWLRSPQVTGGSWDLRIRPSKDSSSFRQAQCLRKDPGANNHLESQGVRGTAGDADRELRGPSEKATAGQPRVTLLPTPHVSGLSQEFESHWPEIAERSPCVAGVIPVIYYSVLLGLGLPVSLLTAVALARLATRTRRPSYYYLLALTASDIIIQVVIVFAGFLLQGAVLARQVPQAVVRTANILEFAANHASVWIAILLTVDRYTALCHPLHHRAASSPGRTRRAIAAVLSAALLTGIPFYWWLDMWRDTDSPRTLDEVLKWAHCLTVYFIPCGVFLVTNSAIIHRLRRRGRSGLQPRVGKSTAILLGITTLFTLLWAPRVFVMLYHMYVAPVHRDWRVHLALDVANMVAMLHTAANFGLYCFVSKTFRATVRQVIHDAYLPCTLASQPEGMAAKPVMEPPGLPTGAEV

[2] = biological target: T2, Probable G-protein coupled receptor 142 (Mus musculus, UniProt Q7TQN9); experiment: Agonist activity at mouse GPR142 expressed in CHO cells measured for 3 mins by Fluo-4M dye based FLIPR assay; assay type: cell-based; conditions: read-out: IC50 (the source's name)
T2 sequence (Q7TQN9 whole entry): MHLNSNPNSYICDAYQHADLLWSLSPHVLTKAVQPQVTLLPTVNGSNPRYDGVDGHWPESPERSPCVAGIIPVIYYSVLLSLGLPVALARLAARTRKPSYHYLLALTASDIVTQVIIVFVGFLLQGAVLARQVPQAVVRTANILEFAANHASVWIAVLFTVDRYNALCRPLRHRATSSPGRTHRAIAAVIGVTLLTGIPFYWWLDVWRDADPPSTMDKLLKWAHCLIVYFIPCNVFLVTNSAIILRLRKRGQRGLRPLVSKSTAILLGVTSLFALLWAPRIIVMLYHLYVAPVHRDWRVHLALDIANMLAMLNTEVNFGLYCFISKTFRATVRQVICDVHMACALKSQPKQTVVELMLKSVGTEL

Cytochrome P450 2D6 = Cytochrome P450 2D6 (Homo sapiens, UniProt P10635); experiment: Inhibition of human liver microsomes CYP2D6 using dextromethorphan as substrate by MUX-MS/MS analysis; assay type: ADME, Microsome
Chain of Cytochrome P450 2D6 (P10635 whole entry): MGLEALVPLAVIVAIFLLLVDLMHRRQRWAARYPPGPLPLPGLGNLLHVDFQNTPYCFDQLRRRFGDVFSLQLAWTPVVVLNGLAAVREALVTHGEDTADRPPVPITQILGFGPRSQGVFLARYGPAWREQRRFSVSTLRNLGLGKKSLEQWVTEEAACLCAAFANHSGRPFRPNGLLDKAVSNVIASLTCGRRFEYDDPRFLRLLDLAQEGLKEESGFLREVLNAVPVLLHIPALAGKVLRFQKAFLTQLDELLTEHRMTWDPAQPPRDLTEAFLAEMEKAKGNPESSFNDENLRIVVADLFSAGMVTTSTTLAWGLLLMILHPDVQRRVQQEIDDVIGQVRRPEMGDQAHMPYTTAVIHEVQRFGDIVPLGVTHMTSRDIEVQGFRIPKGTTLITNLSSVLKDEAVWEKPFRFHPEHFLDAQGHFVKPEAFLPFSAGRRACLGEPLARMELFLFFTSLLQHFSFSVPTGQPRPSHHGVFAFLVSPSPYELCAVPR

Cytochrome P450 3A4 = Cytochrome P450 3A4 (Homo sapiens, UniProt P08684); experiment: Inhibition of human liver microsomes CYP3A4 using testosterone as substrate by MUX-MS/MS analysis; assay type: ADME, Microsome
Chain of Cytochrome P450 3A4 (P08684 whole entry): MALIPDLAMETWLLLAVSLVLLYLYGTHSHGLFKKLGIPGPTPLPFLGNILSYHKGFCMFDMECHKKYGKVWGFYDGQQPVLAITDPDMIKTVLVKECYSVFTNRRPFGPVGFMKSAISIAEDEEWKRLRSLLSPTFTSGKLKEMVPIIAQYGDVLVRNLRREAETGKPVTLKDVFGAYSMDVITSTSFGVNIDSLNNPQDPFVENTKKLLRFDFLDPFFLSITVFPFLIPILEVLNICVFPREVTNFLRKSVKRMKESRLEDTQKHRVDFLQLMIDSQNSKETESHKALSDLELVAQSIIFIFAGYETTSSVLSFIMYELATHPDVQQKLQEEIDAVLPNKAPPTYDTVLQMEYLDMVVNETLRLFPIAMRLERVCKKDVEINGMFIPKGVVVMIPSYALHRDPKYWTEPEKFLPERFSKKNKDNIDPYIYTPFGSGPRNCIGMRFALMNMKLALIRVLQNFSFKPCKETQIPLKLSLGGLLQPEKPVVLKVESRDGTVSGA

Cytochrome P450 2C9 = Cytochrome P450 2C9 (Homo sapiens, UniProt P11712); experiment: Inhibition of human liver microsomes CYP2C9 using diclofenac as substrate by MUX-MS/MS analysis; assay type: ADME, Microsome
Chain of Cytochrome P450 2C9 (P11712 whole entry): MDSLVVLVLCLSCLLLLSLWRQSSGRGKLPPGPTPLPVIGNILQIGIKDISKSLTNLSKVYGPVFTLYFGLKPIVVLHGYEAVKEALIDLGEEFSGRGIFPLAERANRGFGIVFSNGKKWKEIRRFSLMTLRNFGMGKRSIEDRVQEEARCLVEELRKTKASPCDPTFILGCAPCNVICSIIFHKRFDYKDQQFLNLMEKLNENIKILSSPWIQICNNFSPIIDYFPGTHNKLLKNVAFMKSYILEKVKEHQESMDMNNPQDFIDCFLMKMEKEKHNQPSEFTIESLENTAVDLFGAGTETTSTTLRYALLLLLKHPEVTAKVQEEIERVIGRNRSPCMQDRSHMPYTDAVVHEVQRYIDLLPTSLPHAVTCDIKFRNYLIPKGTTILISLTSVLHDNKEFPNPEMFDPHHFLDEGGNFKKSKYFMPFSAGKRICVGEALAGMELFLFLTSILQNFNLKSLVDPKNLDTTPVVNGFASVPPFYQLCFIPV

[3] = biological target: Voltage-gated inwardly rectifying potassium channel KCNH2 (Homo sapiens, UniProt Q12809); experiment: Inhibition of human ERG expressed in HEK293 cells assessed as reduction in S35-MK-0499 binding; assay type: cell-based
Chain of Voltage-gated inwardly rectifying potassium channel KCNH2 (Q12809 whole entry): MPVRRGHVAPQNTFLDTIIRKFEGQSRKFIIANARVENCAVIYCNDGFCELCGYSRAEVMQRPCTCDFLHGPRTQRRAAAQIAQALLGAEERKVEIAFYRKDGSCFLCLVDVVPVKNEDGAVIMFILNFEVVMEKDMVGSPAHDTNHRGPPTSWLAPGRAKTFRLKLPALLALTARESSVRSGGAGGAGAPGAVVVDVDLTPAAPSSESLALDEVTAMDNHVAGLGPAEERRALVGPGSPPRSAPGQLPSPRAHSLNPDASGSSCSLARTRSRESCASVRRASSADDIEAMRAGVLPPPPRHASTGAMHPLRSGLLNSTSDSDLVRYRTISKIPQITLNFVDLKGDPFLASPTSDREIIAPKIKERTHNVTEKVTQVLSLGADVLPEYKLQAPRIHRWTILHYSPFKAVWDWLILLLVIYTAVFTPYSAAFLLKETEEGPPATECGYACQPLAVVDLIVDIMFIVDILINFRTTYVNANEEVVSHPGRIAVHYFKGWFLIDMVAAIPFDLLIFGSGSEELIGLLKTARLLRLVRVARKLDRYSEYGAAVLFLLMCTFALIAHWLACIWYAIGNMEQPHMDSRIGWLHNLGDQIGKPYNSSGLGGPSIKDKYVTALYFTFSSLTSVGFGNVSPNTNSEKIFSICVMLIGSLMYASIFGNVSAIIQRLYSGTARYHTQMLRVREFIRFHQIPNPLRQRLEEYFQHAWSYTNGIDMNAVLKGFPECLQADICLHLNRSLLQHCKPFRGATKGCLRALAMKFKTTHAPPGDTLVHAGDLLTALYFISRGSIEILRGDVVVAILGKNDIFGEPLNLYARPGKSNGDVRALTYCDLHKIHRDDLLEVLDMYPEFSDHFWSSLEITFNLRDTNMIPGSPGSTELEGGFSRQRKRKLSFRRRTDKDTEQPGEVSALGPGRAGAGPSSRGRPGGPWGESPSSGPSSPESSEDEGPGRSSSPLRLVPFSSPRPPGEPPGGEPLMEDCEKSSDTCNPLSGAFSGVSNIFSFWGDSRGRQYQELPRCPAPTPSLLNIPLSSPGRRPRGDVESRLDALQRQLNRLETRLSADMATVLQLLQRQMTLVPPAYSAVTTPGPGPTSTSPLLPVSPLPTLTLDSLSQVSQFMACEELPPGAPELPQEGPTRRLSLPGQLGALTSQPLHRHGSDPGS

[4] = Volume of distribution at steady state in rat at 2 mg/kg, po or 1 mg/kg, iv; assay type: ADME, organism-based; conditions: in vivo, read-out: Vdss
[5] = Half life in rat at 2 mg/kg, po or 1 mg/kg, iv; assay type: ADME, organism-based; conditions: in vivo
[6] = Protein binding in rat plasma assessed as unbound fraction; assay type: ADME, cell-free
[7] = Clearance in rat at 2 mg/kg, po or 1 mg/kg, iv; assay type: ADME, organism-based; conditions: in vivo
[8] = Oral bioavailability in rat at 2 mg/kg; assay type: ADME, organism-based; conditions: in vivo

Row | EC50 [1] | EC50 [2] | Structure (SMILES) | also measured
1 | 1.22 µM | 2.61 µM | O=C(Nc1ccc(F)cc1)N1CCOc2ccc(-c3ccncc3)cc2C1 | 
2 | 0.708 µM | 0.157 µM | O=C(Nc1cccc(Cl)c1Cl)N1CCOc2ccc(-c3ccncc3)cc2C1 | 
3 | 0.374 µM |  | COc1cccc(NC(=O)N2CCOc3ccc(-c4ccnc(C)c4)cc3C2)c1 | 
4 | 0.146 µM | 0.158 µM | O=C(Nc1ccc(Cl)c(Cl)c1)N1CCNc2ccc(-c3ccncc3)cc2C1 | 
5 | 0.11 µM |  | N#Cc1cccc(NC(=O)N2CCOc3ccc(-n4ccnc4)cc3C2)c1 | 
6 | > 20 µM | > 20 µM | COc1ccc(NC(=O)N2CCOc3ccc(-c4ccncc4)cc3C2)cc1 | 
7 | 0.517 µM | 0.092 µM | COc1ccccc1NC(=O)N1CCOc2ccc(-c3ccncc3)cc2C1 | 
8 | 2.8 µM | 2.57 µM | COc1cccc(NC(=O)N2CCOc3ccc(-c4ccnc(OC)c4)cc3C2)c1 | 
9 | 0.793 µM | 0.851 µM | O=C(Nc1ccccc1)N1CCOc2ccc(-c3ccncc3)cc2C1 | 
10 | 0.224 µM | 0.413 µM | O=C(Nc1cccc(F)c1)N1CCOc2ccc(-c3ccncc3)cc2C1 | 
11 | 0.81 µM | 0.448 µM | N#Cc1cccc(NC(=O)N2CCOc3ccc(-c4ccnc(N)c4)cc3C2)c1 | 

Further lines, the compound ahead of its results:

Row | Structure (SMILES) | EC50 [1] | EC50 [2] | also measured
12 | O=C(Nc1ccc(Cl)c(Cl)c1)N1CCc2ccc(-c3ccncc3)cc2C1 | 1.85 µM | 1.05 µM | 
13 | Cc1cc(-c2ccc3c(c2)-c2nnc(Oc4ccccc4OC(F)(F)F)n2CCO3)ccn1 | 0.089 µM |  | IC50 (Cytochrome P450 2D6): 8.65 µM; IC50 (Cytochrome P450 3A4): > 50 µM; IC50 (Cytochrome P450 2C9): 26.1 µM; IC50 [3]: 2.84 µM
14 | O=C(Nc1ccc(Cl)c(Cl)c1)N1CCc2ccc(-c3ccncc3)cc21 | > 20 µM | 2.95 µM | 
15 | O=C(Nc1ccc(Cl)c(Cl)c1)N1CCCc2ccc(-c3ccncc3)cc2C1 | 0.839 µM | 0.59 µM | 
16 | CN1CCN(C(=O)Nc2ccc(Cl)c(Cl)c2)Cc2cc(-c3ccncc3)ccc21 | > 20 µM | 2.57 µM | 
17 | Cc1cc(-c2ccc3c(c2)-c2nnc(Oc4cccc(Cl)c4)n2CCO3)ccn1 | 0.058 µM |  | IC50 (Cytochrome P450 2D6): 7.02 µM; IC50 (Cytochrome P450 3A4): > 50 µM; IC50 (Cytochrome P450 2C9): > 50 µM; IC50 [3]: 0.931 µM
18 | O=C(Nc1ccc(Cl)c(Cl)c1)N1CCCc2ccc(-c3ccncc3)cc21 | > 20 µM | > 20 µM | 
19 | Cc1cc(-c2ccc3c(c2)-c2nnc(Oc4ccccc4Cl)n2CCO3)ccn1 | 0.102 µM |  | IC50 (Cytochrome P450 2D6): 24.3 µM; IC50 (Cytochrome P450 3A4): > 50 µM; IC50 (Cytochrome P450 2C9): > 50 µM; IC50 [3]: 3.51 µM
20 | Cc1cc(-c2ccc3c(c2)-c2nnc(Nc4cccc(Cl)c4)n2CCO3)ccn1 |  |  | IC50 (Cytochrome P450 2D6): 0.792 µM; Vd [4]: 1.9 L/kg; half-life [5]: 2.5 h; IC50 (Cytochrome P450 3A4): 11.8 µM; IC50 (Cytochrome P450 2C9): 3.44 µM; fraction unbound [6]: 0.0337; clearance [7]: 7.8 mL/min/kg; bioavailability [8]: 40%
21 | Cc1cc(-c2ccc3c(c2)-c2nnc(Oc4cccc(OC(F)(F)F)c4)n2CCO3)ccn1 | 0.078 µM |  | IC50 (Cytochrome P450 2D6): 1.95 µM; IC50 (Cytochrome P450 3A4): > 50 µM; IC50 (Cytochrome P450 2C9): 14.3 µM; IC50 [3]: 0.693 µM
22 | CCCCN1CCN(C(=O)Nc2ccc(Cl)c(Cl)c2)Cc2cc(-c3ccncc3)ccc21 | > 20 µM | 4.5 µM | 
23 | Cc1cc(-c2ccc3c(c2)-c2nnc(Nc4cccc(OC(F)(F)F)c4)n2CCO3)ccn1 | 0.045 µM |  | IC50 (Cytochrome P450 2D6): 1.72 µM; Vd [4]: 1.9 L/kg; half-life [5]: 2 h; IC50 (Cytochrome P450 3A4): > 50 µM; IC50 (Cytochrome P450 2C9): 1.39 µM; fraction unbound [6]: 0.0949; clearance [7]: 11 mL/min/kg; IC50 [3]: 0.236 µM
